The values that follow come from patent publication US20260265233A1, “BENZOTHIOPHENE DERIVATIVES AS RXFP1 AGONISTS” (BRISTOL-MYERS SQUIBB COMPANY, priority 2021, published 2026).

Molecules are shown by their SMILES.

For the test, the target named is T1, human RXFP1 (Homo sapiens, UniProt Q9HBX9).
T1 construct: expressed in transfected cells
T1 sequence (Q9HBX9 1-757): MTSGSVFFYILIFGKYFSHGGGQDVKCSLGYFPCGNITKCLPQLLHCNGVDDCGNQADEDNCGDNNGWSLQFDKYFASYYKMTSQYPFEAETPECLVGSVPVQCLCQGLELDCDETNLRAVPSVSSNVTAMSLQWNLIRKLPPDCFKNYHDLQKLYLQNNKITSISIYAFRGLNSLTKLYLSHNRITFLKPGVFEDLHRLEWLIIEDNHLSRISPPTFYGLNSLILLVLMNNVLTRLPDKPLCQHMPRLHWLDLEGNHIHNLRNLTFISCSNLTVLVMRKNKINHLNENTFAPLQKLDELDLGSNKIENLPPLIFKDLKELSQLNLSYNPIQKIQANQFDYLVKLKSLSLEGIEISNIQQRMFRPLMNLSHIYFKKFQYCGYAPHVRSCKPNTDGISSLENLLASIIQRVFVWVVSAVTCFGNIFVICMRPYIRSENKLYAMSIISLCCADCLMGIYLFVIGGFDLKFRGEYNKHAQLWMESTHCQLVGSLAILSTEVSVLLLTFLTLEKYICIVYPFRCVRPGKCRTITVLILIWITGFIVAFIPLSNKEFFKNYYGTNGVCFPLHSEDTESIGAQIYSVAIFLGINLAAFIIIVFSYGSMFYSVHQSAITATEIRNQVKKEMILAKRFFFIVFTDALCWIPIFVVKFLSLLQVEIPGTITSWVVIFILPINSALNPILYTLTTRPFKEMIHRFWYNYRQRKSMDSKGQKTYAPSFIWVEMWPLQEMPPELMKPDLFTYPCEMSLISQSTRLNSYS
Briefly: hRXFP1 HEK293 cAMP assay (HTRF). It is filed as cell-based. The note with it: HEK293 cells stably expressing human RXFP1; 30 min at rt; intracellular cAMP by HTRF. The gist of the method: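 Agonism is measured as cAMP by HTRF, quantified from a standard curve via the 665/590 nm ratio and fitted with a four-parameter logistic equation. Compounds (0.010 nM to 50 μM final, 2% DMSO) were applied for 30 min at rt to human RXFP1-expressing HEK293 cells in assay buffer containing 0.5 mM IBMX.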
With `COc1ccc(-c2cc(C(=O)O)ccc2F)cc1C(=O)Nc1c(C(=O)Nc2ccc(F)c(C(F)(F)F)c2)sc2cc(Cl)ncc12` [Example 201, 3′-((6-chloro-2-((4-fluoro-3-(trifluoromethyl)phenyl)carbamoyl)thieno[3,2-c]pyridin-3-yl)carbamoyl)-6-fluoro-4′-methoxy-[1,1′-biphenyl]-3-carboxylic acid], a half-maximal response (EC50) required 320 nM. Regarding `COc1ccc(C(=O)N2CC[C@H](O)C2)cc1C(=O)Nc1c(C(=O)Nc2ccc(F)c(C(F)(F)F)c2)sc2cc(C(F)(F)F)ccc12` [Example 174, (S)-N-(4-fluoro-3-(trifluoromethyl)phenyl)-3-(5-(3-hydroxy-pyrrolidine-1-carbonyl)-2-methoxy-benzamido)-6-(trifluoromethyl) benzo[b] thiophene-2-carboxamide], the EC50 is 405 nM. On to `COc1ccc(C2=NOC3CC(C(C)(C)O)CC23)cc1C(=O)Nc1c(C(=O)Nc2ccc(F)c(C(F)(F)F)c2)sc2cc(C(F)(F)F)ccc12` (single isomer, unassigned) [Example 55, N-(4-fluoro-3-(trifluoromethyl)phenyl)-3-(5-(5-(2-hydroxypropan-2-yl)-3a, 5,6,6a-tetrahydro-4H-cyclopenta[d]isoxazol-3-yl)-2-methoxybenzamido)-6-(trifluoromethyl)benzo[b]thiophene-2-carboxamide], for which a half-maximal effect (EC50) was put at 320 nM. Take `COc1ccc(-c2nc(N3CCOCC3)no2)cc1C(=O)Nc1c(C(=O)Nc2ccc(F)c(C(F)(F)F)c2)sc2cc(C(F)(F)F)ccc12` [Example 277, N-[4-fluoro-3-(trifluoromethyl)phenyl]-3-{2-methoxy-5-[3-(morpholin-4-yl)-1,2,4-oxadiazol-5-yl]benzamido}-6-(trifluoromethyl)-1-benzothiophene-2-carboxamide]: it took 398 nM to reach a half-maximal effect (EC50). On to `COc1ccc(C2CCNC2)cc1C(=O)Nc1c(C(=O)Nc2ccc(F)c(C(F)(F)F)c2)sc2cc(C(F)(F)F)ccc12` (single isomer, unassigned) [Example 133, N-(4-fluoro-3-(trifluoromethyl)phenyl)-3-(2-methoxy-5-(pyrrolidin-3-yl)benzamido)-6-(trifluoromethyl) benzo[b] thiophene-2-carboxamide], for which the EC50 was 876 nM. As to `COc1cc(F)c(C(=O)N2CC(C(C)(C)O)C2)cc1C(=O)Nc1c(C(=O)Nc2ccc(F)c(C(F)(F)F)c2)sc2cc(C(F)(F)F)ccc12` [Example 182, N-(4-fluoro-3-(trifluoromethyl)phenyl)-3-(4-fluoro-5-(3-(2-hydroxypropan-2-yl)azetidine-1-carbonyl)-2-methoxy-benzamido)-6-(trifluoromethyl) benzo[b] thiophene-2-carboxamide], the midpoint of the response, the EC50, lay at 357 nM. Compound `COc1ccc(C(=O)N2CC[C@@H](O)C2)cc1C(=O)Nc1c(C(=O)Nc2ccc(F)c(C(F)(F)F)c2)sc2cc(Cl)ncc12` [Example 199, (R)-6-chloro-N-(4-fluoro-3-(trifluoromethyl)phenyl)-3-(5-(3-hydroxypyrrolidine-1-carbonyl)-2-methoxy-benzamido) thieno[3,2-c]pyridine-2-carboxamide] gave an EC50 of 690 nM. `COc1cc(F)c(C(=O)N2CC(S(C)(=O)=O)C2)cc1C(=O)Nc1c(C(=O)Nc2ccc(F)c(C(F)(F)F)c2)sc2cc(C(F)(F)F)ccc12` [Example 28, 3-(4-fluoro-2-methoxy-5-(3-(methylsulfonyl)azetidine-1-carbonyl)benzamido)-N-(4-fluoro-3-(trifluoromethyl)phenyl)-6-(trifluoromethyl)benzo[b]thiophene-2-carboxamide] yielded an EC50 of 48.7 nM. Turning to `COc1ccc(C2=NOC3CN(C(=O)OC(C)(C)C)CC23)cc1C(=O)Nc1c(C(=O)Nc2ccc(F)c(C(F)(F)F)c2)sc2cc(C(F)(F)F)ccc12` (single isomer, unassigned) [Example 244, tert-butyl 3-(3-((2-((4-fluoro-3-(trifluoromethyl)phenyl)carbamoyl)-6-(trifluoromethyl)benzo[b]thiophen-3-yl)carbamoyl)-4-methoxyphenyl)-3a,4,6,6a-tetrahydro-5H-pyrrolo[3,4-d]isoxazole-5-carboxylate], the EC50 is 360 nM. As for `COc1ccc(C2CCC(C)(O)CC2)cc1C(=O)Nc1c(C(=O)Nc2ccc(F)c(C(F)(F)F)c2)sc2cc(C(F)(F)F)ccc12` (single isomer, unassigned) [Example 37, N-(4-fluoro-3-(trifluoromethyl)phenyl)-3-(5-(4-hydroxy-4-methylcyclohexyl)-2-methoxybenzamido)-6-(trifluoromethyl)benzo[b]thiophene-2-carboxamide], the EC50 stood at 158 nM. `COc1ccc(C2CC2C(=O)N2CC(O)C2)cc1C(=O)Nc1c(C(=O)Nc2ccc(F)c(C(F)(F)F)c2)sc2cc(C(F)(F)F)ccc12` (stereo not shown) [Example 162, N-(4-fluoro-3-(trifluoromethyl)phenyl)-3-(5-(2-(3-hydroxyazetidine-1-carbonyl)cyclopropyl)-2-methoxy-benzamido)-6-(trifluoromethyl) benzo[b] thiophene-2-carboxamide]: the midpoint of the response, the EC50, lay at 292 nM.

In the case of `COc1ccc(-c2cc(CN(C)C)on2)cc1C(=O)Nc1c(C(=O)Nc2ccc(F)c(C(F)(F)F)c2)sc2cc(C(F)(F)F)ccc12` [Example 273, 3-(5-(5-((dimethylamino)methyl)isoxazol-3-yl)-2-methoxy-benzamido)-N-(4-fluoro-3-(trifluoromethyl)phenyl)-6-(trifluoromethyl) benzo[b] thiophene-2-carboxamide], the EC50 was determined as 857 nM. The result for `COc1ccc(C2CCN(CC(N)=O)C2)cc1C(=O)Nc1c(C(=O)Nc2ccc(F)c(C(F)(F)F)c2)sc2cc(C(F)(F)F)ccc12` (stereo not shown) [Example 147, 3-(5-(1-(2-amino-2-oxoethyl)pyrrolidin-3-yl)-2-methoxy-benzamido)-N-(4-fluoro-3-(trifluoromethyl)phenyl)-6-(trifluoromethyl) benzo[b] thiophene-2-carboxamide] reads 1430 nM. `COc1ccc(C(=O)N2CC(C)(C)C2)cc1C(=O)Nc1c(C(=O)Nc2ccc(F)c(C(F)(F)F)c2)sc2cc(C(F)(F)F)ccc12` [Example 27, 3-(5-(3,3-dimethylazetidine-1-carbonyl)-2-methoxybenzamido)-N-(4-fluoro-3-(trifluoromethyl)phenyl)-6-(trifluoromethyl) benzo[b]thiophene-2-carboxamide] returned an EC50 of 1720 nM.

`COc1ccc(N2CCCC(C(=O)NC3COC3)C2)cc1C(=O)Nc1c(C(=O)Nc2ccc(F)c(C(F)(F)F)c2)sc2cc(C(F)(F)F)ccc12` (single isomer, unassigned) [Example 229, 1-(3-((2-((4-fluoro-3-(trifluoromethyl)phenyl)carbamoyl)-6-(trifluoromethyl)benzo [b]thiophen-3-yl)carbamoyl)-4-methoxyphenyl)-N-(oxetan-3-yl)piperidine-3-carboxamide] came in with an EC50 of 2570 nM.

Turning to `COc1ccc(C(=O)N2CCC(CO)CC2)cc1C(=O)Nc1c(C(=O)Nc2ccc(F)c(C(F)(F)F)c2)sc2cc(C(F)(F)F)ccc12` [Example 176, N-(4-fluoro-3-(trifluoromethyl)phenyl)-3-(5-(4-(hydroxymethyl)piperidine-1-carbonyl)-2-methoxy-benzamido)-6-(trifluoromethyl) benzo[b] thiophene-2-carboxamide], it took 279 nM to reach a half-maximal effect (EC50). `COc1ccc(C2=NOC3COCC23)cc1C(=O)Nc1c(C(=O)Nc2ccc(F)c(C(F)(F)F)c2)sc2cc(C(F)(F)F)ccc12` (single isomer, unassigned) [Example 255, 3-(5-{3aH,4H,6H,6aH-furo[3,4-d][1,2]oxazol-3-yl}-2-methoxy-benzamido)-N-[4-fluoro-3-(trifluoromethyl)phenyl]-6-(trifluoromethyl)-1-benzothiophene-2-carboxamide] displayed an EC50 of 498 nM. Against the preceding compound, the EC50 is about 1.8-fold higher. With `COc1ccc(N2CCCC(C(C)(C)O)C2)cc1C(=O)Nc1c(C(=O)Nc2ccc(F)c(C(F)(F)F)c2)sc2cc(C(F)(F)F)ccc12` (single isomer, unassigned) [Example 107, N-(4-fluoro-3-(trifluoromethyl)phenyl)-3-(5-(3-(2-hydroxypropan-2-yl)piperidin-1-yl)-2-methoxy-benzamido)-6-(trifluoromethyl) benzo[b] thiophene-2-carboxamide], it took 918 nM to reach a half-maximal effect (EC50). Compound `COc1ccc(C2CCCN(C(=O)C(C)(C)O)C2)cc1C(=O)Nc1c(C(=O)Nc2ccc(F)c(C(F)(F)F)c2)sc2cc(C(F)(F)F)ccc12` (stereo not shown) [Example 104, N-[4-fluoro-3-(trifluoromethyl)phenyl]-3-{5-[1-(2-hydroxy-2-methylpropanoyl)piperidin-3-yl]-2-methoxy-benzamido}-6-(trifluoromethyl)-1-benzothiophene-2-carboxamide] came in with an EC50 of 277 nM.

As a reminder, the EC50 is the concentration at which the effect is half-maximal. A high value points to a less potent agent.
